“And” between values parts separate entries of the source, which are not always exact repeats. Equal values may be shown once.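 In this assay, cells in 96-well plates receive the compound at five concentrations for 48 hours. Endpoints are linearly interpolated between the surrounding concentrations. GI50 is the concentration that inhibits growth by half. At the TGI there is no net growth.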
Tests used:
Assay in all cases: inhibition of tumour cell growth, NCI panel, 48 h
MDA-MB-435 = tested on: MDA-MB-435
SNB-19 CNS = tested on: SNB-19 CNS
NCI-H522 lung = tested on: NCI-H522 lung
NCI-H460 lung = tested on: NCI-H460 lung
A498 renal = tested on: A498 renal
HL-60(TB) leukemia = tested on: HL-60(TB) leukemia
PC-3 prostate = tested on: PC-3 prostate
EKVX NSCLC = tested on: EKVX NSCLC
SK-OV-3 ovarian = tested on: SK-OV-3 ovarian
SF-295 CNS = tested on: SF-295 CNS

Compound	GI50 (MDA-MB-435)	TGI (MDA-MB-435) [µM]	GI50 (SNB-19 CNS)	TGI (SNB-19 CNS) [µM]	GI50 (NCI-H522 lung)	TGI (NCI-H522 lung) [µM]	GI50 (NCI-H460 lung)	TGI (NCI-H460 lung) [µM]	GI50 (A498 renal)	TGI (A498 renal) [µM]	GI50 (HL-60(TB) leukemia)	TGI (HL-60(TB) leukemia) [µM]	GI50 (PC-3 prostate)	TGI (PC-3 prostate) [µM]	GI50 (EKVX NSCLC)	TGI (EKVX NSCLC) [µM]	GI50 (SK-OV-3 ovarian)	TGI (SK-OV-3 ovarian) [µM]	GI50 (SF-295 CNS)	TGI (SF-295 CNS)
Cc1cc(I)cc(CNCCN2CCOCC2)c1O	> 100 µM	> 100	> 100 µM	> 100	92.8 µM	> 100	52.8 µM	> 100	> 100 µM	> 100	> 100 µM	> 100	> 100 µM	> 100	24.3 µM	> 100	> 100 µM	> 100	36 µM	> 100 µM
O=C(NCCCl)NCCN1c2nc3ccccc3cc2Sc2cc3ccccc3nc21	1.57 µM	11.1	5.58 µM	> 46.8	4.23 µM	> 53.3	0.475 µM	1.94	4.58 µM	24.7	1.71 µM	5.12	0.719 µM	20.1	3.45 µM	> 44.1	4.41 µM	> 44.3	0.569 µM	3.75 µM
CN(C)c1ccc(/C=C(\C#N)c2ccccc2)cc1	0.0424 µM and 0.192 µM and 0.13 µM	–	0.481 µM and 0.68 µM and 0.92 µM	> 100	0.369 µM and 0.43 µM and 0.681 µM	–	0.356 µM and 0.415 µM and 0.431 µM	–	0.633 µM and 0.281 µM and 0.316 µM	–	0.218 µM and 0.34 µM	11.8	0.272 µM and 1.92 µM and 0.956 µM	> 100	0.499 µM and 1.43 µM and 1.78 µM	> 100	0.421 µM and 0.622 µM and 0.641 µM	> 100	0.225 µM and 0.421 µM	0.99 µM and 5.97 µM
Nc1c(C(=O)c2ccc(C#CCN3CCOCC3)cc2)cnn1-c1ccc(F)cc1	> 25 µM	> 25	> 25 µM	> 25	> 25 µM	> 25	> 25 µM	> 25	> 25 µM	> 25	> 25 µM	> 25	> 25 µM	> 25	–	–	> 25 µM	> 25	> 25 µM	> 25 µM
Cc1ccc(/C=C(/C#N)n2nnc3ncccc32)cc1	0.378 µM	13.4	3.43 µM	16.8	0.255 µM	0.878	2.69 µM	7.76	2.28 µM	7.51	2.99 µM	9.92	4.18 µM	21.2	2.88 µM	26.9	3.9 µM	> 100	3.77 µM	16.2 µM
O=C1Nc2ccc(O)cc2/C1=C\c1ccncc1	18.2 µM	71	21.2 µM	59	11.5 µM	38.2	12.7 µM	42.9	30.5 µM	49.9	36 µM	> 100	26.9 µM	77.8	10.6 µM	56	58.9 µM	> 100	25.9 µM	77.8 µM

Source: PubChem BioAssay (NCI)
